Drawing on patent US20230131899A1, “INHIBITORS OF MICROBIALLY INDUCED AMYLOID” (Axial Therapeutics, Inc., priority 2020, published 2023), this text covers remaining activity for 17 compounds.

Read-outs that look alike come from different tables or passages of the source. Where only a bound is given, the exact number is not on record here.

In the experiment the target is T1, E. coli CsgA (Escherichia coli, UniProt P28307).
T1 construct: made in house; host or cells: E. coli NEB 3016 slyD::kan, pET11d
T1 sequence (P28307 23-151): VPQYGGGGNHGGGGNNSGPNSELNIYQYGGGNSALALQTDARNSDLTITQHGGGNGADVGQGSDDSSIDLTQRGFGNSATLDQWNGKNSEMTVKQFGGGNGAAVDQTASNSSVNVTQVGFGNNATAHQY
The experiment is described as follows: In vitro ThioflavinT assay of CsgA aggregation (CsgA ThT Assay). In kind it is biochemical. The conditions noted are these: for remaining activity at 25 µM: compound 25 μM; for remaining activity at 100 µM: compound 100 μM. The procedure, abridged: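 Purified C-terminal His-tagged CsgA, monomerised by desalting and 30-kDa filtration, at 2-20 μM with 20-40 μM ThT in 50 mM potassium phosphate pH 7.3, 1% DMSO, compounds 3.125-200 uM; room temperature, fluorescence (ex 438/em 495 nm) read every 15 min. Background-subtracted signal expressed as percent inhibition versus vehicle at 6-6.5 or 8-9 h, or as percent control AUC.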

Setting [1] is: read-out: CsgA ThT Assay (2 μM CsgA) % Control Bmax 25 μM, activity range, class symbol, CsgA 2 μM, white plates.
Where [2] appears, read: read-out: CsgA ThT Assay (2 μM CsgA) % Control Bmax 25 μM, mean Bmax as percentage of DMSO control, CsgA 2 μM, white plates.
[3] abbreviates: read-out: CsgA ThT Assay (2 μM CsgA) % Control Bmax 100 μM, activity range, class symbol, CsgA 2 μM, white plates.
[4] abbreviates: read-out: CsgA ThT Assay (2 μM CsgA) % Control Bmax 100 μM, mean Bmax as percentage of DMSO control, CsgA 2 μM, white plates.
[5] abbreviates: read-out: CsgA ThT Assay (10 μM CsgA) % Control AUC at 1005 minutes, 25 μM (activity range), CsgA 10 μM, black plates, 1005 minutes, class symbol.
Setting [6] is: read-out: CsgA ThT Assay (10 μM CsgA) % Control AUC at 1005 minutes, 25 μM, mean AUC as % of DMSO control, CsgA 10 μM, black plates, 1005 minutes.
Where [7] appears, read: read-out: CsgA ThT Assay (10 μM CsgA) % Control AUC at 1005 minutes, 100 μM (activity range), CsgA 10 μM, black plates, 1005 minutes, class symbol.
[8] abbreviates: read-out: CsgA ThT Assay (10 μM CsgA) % Control AUC at 1005 minutes, 100 μM, mean AUC as % of DMSO control, CsgA 10 μM, black plates, 1005 minutes.

Regarding `O=C(O)C1CN(CC2CCCCC2)c2c(-c3cccc(C(F)(F)F)c3)c(Cc3cccc4ccccc34)c(Cl)c(=O)n21` (centres unmarked) [Compound 180, 6-chloro-1-(cyclohexylmethyl)-7-(naphthalen-1-ylmethyl)-5-oxo-8-(3-(trifluoromethyl)phenyl)-1,2,3,5-tetrahydroimidazo[1,2-a]pyridine-3-carboxylic acid], the remaining activity at 25 µM reads like this: under setting [1], greater than 60%; under setting [2], 65%. Further, the remaining activity at 100 µM reads like this: under setting [3], 11 to 31%; under setting [4], 21%.
For `Cn1c(=O)c2c(nc(CCCCN3CC(C(=O)O)n4c(c(-c5cccc(C(F)(F)F)c5)c(Cc5cccc6ccccc56)cc4=O)S3(=O)=O)n2C)n(C)c1=O` (centres unmarked) [Compound 044, 8-(naphthalen-1-ylmethyl)-6-oxo-9-(3-(trifluoromethyl)phenyl)-2-(4-(1,3,7-trimethyl-2,6-dioxo-2,3,6,7-tetrahydro-1H-purin-8-yl)butyl)-3,4-dihydro-2H,6H-pyrido[1,2-e][1,2,5]thiadiazine-4-carboxylic acid 1,1-dioxide], the remaining activity at 25 µM was 31 to 60% under setting [5] and 55% under setting [6]. The remaining activity at 100 µM reads like this: under setting [7], 31 to 60%; under setting [8], 42%.
Regarding `O=C(O)C1CN(Cc2cccc3ccccc23)c2c(-c3cccc(C(F)(F)F)c3)c(Cc3cccc4ccccc34)c(Cl)c(=O)n21` (centres unmarked) [Compound 200, 6-chloro-1,7-bis(naphthalen-1-ylmethyl)-5-oxo-8-(3-(trifluoromethyl)phenyl)-1,2,3,5-tetrahydroimidazo[1,2-a]pyridine-3-carboxylic acid], the remaining activity at 25 µM reads like this: under setting [1], 31 to 60%; under setting [2], 52%. Further, the remaining activity at 100 µM reads like this: under setting [3], less than 10%; under setting [4], 7%.
Take `O=C(O)[C@H]1CN(Cc2ccccc2)c2c(-c3cccc(C(F)(F)F)c3)c(Cc3cccc4ccccc34)c(Cl)c(=O)n21` (single isomer, unassigned) [Compound 004b]: the remaining activity at 25 µM reads like this: under setting [1], 31 to 60%; under setting [2], 54%. Also, the remaining activity at 100 µM under setting [3] was 31 to 60% and the remaining activity at 100 µM under setting [4] was 40%.
Take `CN(C)C(=O)C1CN(C)S(=O)(=O)c2c(-c3cccc(C(F)(F)F)c3)c(Cc3cccc4ccccc34)cc(=O)n21` (centres unmarked) [Compound 032, N,N-2-trimethyl-8-(naphthalen-1-ylmethyl)-6-oxo-9-(3-(trifluoromethyl)phenyl)-3,4-dihydro-2H,6H-pyrido[1,2-e][1,2,5]thiadiazine-4-carboxamide 1,1-dioxide]: the remaining activity at 25 µM under setting [5] is greater than 60% and the remaining activity at 25 µM under setting [6] stood at 92%.
On to `O=C(O)C1CN(C[C@@H](O)CO)S(=O)(=O)c2c(-c3cccc(C(F)(F)F)c3)c(Cc3cccc4ccccc34)cc(=O)n21` (mixture of isomers) [Compound 065b, 2-((R)-2,3-dihydroxypropyl)-8-(naphthalen-1-ylmethyl)-6-oxo-9-(3-(trifluoromethyl)phenyl)-3,4-dihydro-2H,6H-pyrido[1,2-e][1,2,5]thiadiazine-4-carboxylic acid 1,1-dioxide], for which the remaining activity at 25 µM was greater than 60% under setting [5] and 66% under setting [6]. The remaining activity at 100 µM is, setting by setting: under setting [7], 11 to 31%; under setting [8], 16%.
With `Cn1c(=O)c2c(ncn2CCCCCCCN2CC(C(=O)O)n3c(c(-c4cccc(C(F)(F)F)c4)c(Cc4cccc5ccccc45)cc3=O)S2(=O)=O)n(C)c1=O` (centres unmarked) [Compound 036], the remaining activity at 25 µM is, setting by setting: under setting [5], greater than 60%; under setting [6], 65%.
With `CCCN1CC(C(=O)O)n2c(c(-c3cccc(C(F)(F)F)c3)c(Cc3cccc4ccccc34)c(O)c2=O)S1(=O)=O` (centres unmarked) [Compound 141, 7-hydroxy-8-(naphthalen-1-ylmethyl)-6-oxo-2-propyl-9-(3-(trifluoromethyl)phenyl)-3,4-dihydro-2H,6H-pyrido[1,2-e][1,2,5]thiadiazine-4-carboxylic acid 1,1-dioxide], the remaining activity at 25 µM is greater than 60% under setting [1] and 80% under setting [2]. Also, the remaining activity at 100 µM was greater than 60% under setting [3] and 94% under setting [4].
Regarding `CC1(C(=O)O)CNS(=O)(=O)c2c(-c3cccc(C(F)(F)F)c3)c(Cc3cccc4ccccc34)cc(=O)n21` (centres unmarked) [Compound 042, 4-methyl-8-(naphthalen-1-ylmethyl)-6-oxo-9-(3-(trifluoromethyl)phenyl)-3,4-dihydro-2H,6H-pyrido[1,2-e][1,2,5]thiadiazine-4-carboxylic acid 1,1-dioxide], the remaining activity at 25 µM reads like this: under setting [5], 31 to 60%; under setting [6], 52%. The remaining activity at 100 µM was 11 to 31% under setting [7] and 18% under setting [8].
Regarding `O=C(O)[C@@H]1CN(Cc2ccccc2)c2c(-c3cccc(C(F)(F)F)c3)c(Cc3cccc4ccccc34)c(Cl)c(=O)n21` (single isomer, unassigned) [Compound 004a], the remaining activity at 25 µM under setting [1] was greater than 60% and the remaining activity at 25 µM under setting [2] is 64%. In addition, the remaining activity at 100 µM by setting is: under setting [3], 11 to 31%; under setting [4], 24%.
Consider `CC1(C)Sc2c(-c3cccc(C(F)(F)F)c3)c(Cc3cccc4ccccc34)nc(=O)n2C1C(=O)O` (centres unmarked) [Compound 059, 2,2-dimethyl-7-(naphthalen-1-ylmethyl)-5-oxo-8-(3-(trifluoromethyl)phenyl)-2,3-dihydro-5H-thiazolo[3,2-c]pyrimidine-3-carboxylic acid], for which the remaining activity at 25 µM was greater than 60% under setting [5] and 63% under setting [6]. Further, the remaining activity at 100 µM under setting [7] lay in the range of 11 to 31% and the remaining activity at 100 µM under setting [8] was determined as 22%.
With `NC(=O)c1c(Cc2cccc3ccccc23)c(-c2cccc(C(F)(F)F)c2)c2n(c1=O)C(C(=O)O)CN(CCCO)S2(=O)=O` (centres unmarked) [Compound 184, 7-carbamoyl-2-(3-hydroxypropyl)-8-(naphthalen-1-ylmethyl)-6-oxo-9-(3-(trifluoromethyl)phenyl)-3,4-dihydro-2H,6H-pyrido[1,2-e][1,2,5]thiadiazine-4-carboxylic acid 1,1-dioxide], the remaining activity at 25 µM reads like this: under setting [1], 31 to 60%; under setting [2], 45%. Moreover, the remaining activity at 100 µM was 11 to 31% under setting [3] and 22% under setting [4].
Take `O=C(O)C1CSc2c(-c3cccc(C(F)(F)F)c3)c(Cc3cccc4ccccc34)cc(=S)n21` (centres unmarked) [Compound 054, 7-(naphthalen-1-ylmethyl)-5-thioxo-8-(3-(trifluoromethyl)phenyl)-2,3-dihydro-5H-thiazolo[3,2-a]pyridine-3-carboxylic acid]: the remaining activity at 25 µM runs as follows: under setting [5], 31 to 60%; under setting [6], 44%. Besides, the remaining activity at 100 µM under setting [7] lay in the range of 31 to 60% and the remaining activity at 100 µM under setting [8] turned out to be 50%.
Regarding `NC(=O)c1c(Cc2cccc3ccccc23)c(-c2cccc(C(F)(F)F)c2)c2n(c1=O)C(C(=O)O)CN(C1CCCC1)S2(=O)=O` (centres unmarked) [Compound 176, 7-carbamoyl-2-cyclopentyl-8-(naphthalen-1-ylmethyl)-6-oxo-9-(3-(trifluoromethyl)phenyl)-3,4-dihydro-2H,6H-pyrido[1,2-e][1,2,5]thiadiazine-4-carboxylic acid 1,1-dioxide], the remaining activity at 25 µM is, setting by setting: under setting [1], 11 to 31%; under setting [2], 25%. For the same compound, the remaining activity at 100 µM reads like this: under setting [3], 11 to 31%; under setting [4], 24%.
Consider `O=C(O)C1CN(Cc2ccccc2)c2c(-c3cccc(Br)c3)c(Cc3cccc4ccccc34)c(Cl)c(=O)n21` (centres unmarked) [Compound 198, 1-benzyl-8-(3-bromophenyl)-6-chloro-7-(naphthalen-1-ylmethyl)-5-oxo-1,2,3,5-tetrahydroimidazo[1,2-a]pyridine-3-carboxylic acid], for which the remaining activity at 25 µM by setting is: under setting [1], greater than 60%; under setting [2], 61%. The remaining activity at 100 µM is 31 to 60% under setting [3] and 39% under setting [4].
With `O=C(O)C1CSc2c(-c3cccc(C(F)(F)F)c3)c(Cc3cccc4ccccc34)c(CO)c(=O)n21` (centres unmarked) [Compound 057, 6-(hydroxymethyl)-7-(naphthalen-1-ylmethyl)-5-oxo-8-(3-(trifluoromethyl)phenyl)-2,3-dihydro-5H-thiazolo[3,2-a]pyridine-3-carboxylic acid], the remaining activity at 25 µM is, setting by setting: under setting [5], 31 to 60%; under setting [6], 59%. The remaining activity at 100 µM is 11 to 31% under setting [7] and 24% under setting [8].
Regarding `O=C(O)C1CN(Cc2ccc(-c3ccccc3)cc2)c2c(-c3cccc(C(F)(F)F)c3)c(Cc3cccc4ccccc34)c(Cl)c(=O)n21` (centres unmarked) [Compound 202, 1-([1,1′-biphenyl]-4-ylmethyl)-6-chloro-7-(naphthalen-1-ylmethyl)-5-oxo-8-(3-(trifluoromethyl)phenyl)-1,2,3,5-tetrahydroimidazo[1,2-a]pyridine-3-carboxylic acid], the remaining activity at 25 µM was 31 to 60% under setting [1] and 51% under setting [2].
